Experimental data published in patent US20090105212A1, “NOVEL ADENINE COMPOUND” (priority 2005, published 2009).

Biological target: T1, Human TLR7 (Homo sapiens, UniProt Q9NYK1)
T1 construct: expressed in transfected cells; host or cells: HEK293 (hTLR7/seap-293)
T1 sequence (Q9NYK1 27-1049): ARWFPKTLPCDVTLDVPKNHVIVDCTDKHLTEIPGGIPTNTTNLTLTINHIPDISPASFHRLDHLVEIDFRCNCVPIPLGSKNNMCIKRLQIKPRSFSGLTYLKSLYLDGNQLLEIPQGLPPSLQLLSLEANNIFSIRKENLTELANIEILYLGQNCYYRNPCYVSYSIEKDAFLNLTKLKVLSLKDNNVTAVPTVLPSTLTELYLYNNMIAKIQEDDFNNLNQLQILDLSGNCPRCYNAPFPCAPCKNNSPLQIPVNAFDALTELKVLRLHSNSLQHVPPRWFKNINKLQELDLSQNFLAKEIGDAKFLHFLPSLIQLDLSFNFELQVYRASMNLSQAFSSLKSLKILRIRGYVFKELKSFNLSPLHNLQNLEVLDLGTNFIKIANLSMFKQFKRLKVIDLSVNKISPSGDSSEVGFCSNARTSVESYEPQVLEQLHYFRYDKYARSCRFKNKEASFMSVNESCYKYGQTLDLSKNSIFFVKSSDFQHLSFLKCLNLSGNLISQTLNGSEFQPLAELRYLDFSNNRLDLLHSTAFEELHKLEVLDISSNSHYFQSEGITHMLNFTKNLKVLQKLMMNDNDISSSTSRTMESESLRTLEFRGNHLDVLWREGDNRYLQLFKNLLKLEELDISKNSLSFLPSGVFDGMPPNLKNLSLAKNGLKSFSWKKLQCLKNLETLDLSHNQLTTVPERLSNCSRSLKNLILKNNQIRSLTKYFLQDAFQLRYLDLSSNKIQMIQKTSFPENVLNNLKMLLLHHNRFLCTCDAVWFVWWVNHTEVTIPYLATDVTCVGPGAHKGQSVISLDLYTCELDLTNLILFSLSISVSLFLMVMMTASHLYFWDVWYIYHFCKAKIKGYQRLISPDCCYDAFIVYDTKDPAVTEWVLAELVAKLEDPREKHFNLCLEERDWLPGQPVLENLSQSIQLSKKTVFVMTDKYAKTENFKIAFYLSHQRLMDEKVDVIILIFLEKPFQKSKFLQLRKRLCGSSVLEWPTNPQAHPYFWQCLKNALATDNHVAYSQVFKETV
Assay: Human TLR7 reporter assay (NF-kB-SEAP, HEK293 cells)
Assay type: cell-based
Settings: hTLR7/seap-293 cells (HEK293, NF-kB-SEAP reporter), 20 hours incubation, 1 nM-10 μM, absorbance 405 nm; read-out: human TLR7 binding activity (EC50)
Method: Human TLR7 Reporter Assay
Human TLR7 or rat TLR7 plasmid and reporter plasmid (NF-kB-SEAP) stably-induced HEK293 cells were suspended in DMEM media (10% […], 1% NEAA, 10 ug/mL blastocidin S HCl, 100 ug/mL Zeocin), and the suspension was seeded in 90 μl/well on 96 well plate (hTLR7/seap-293:20000 cells/well, rTLR7/seap-293:25000 cells/well).
To the cells seeded on 96 well plate was added in 10 μl/well a test compound wherein DMSO stock solution (2 μl) was hundredfold diluted with medium (200 μl) (final concentration; 1 nM-10 μM, common ratio 3). The mixture was stirred tapping in the side of the plate, and then incubated for 20 hours in CO2 incubator. To the cells stimulated by a test compound was added a substrate for reporter assay (substrate for SEAP, pNPP) by 50 μl/well. 10 minutes after the addition of substrate, a quenching solution (4N NaOH) was added by 50 μl/well, and the enzymatic reaction was quenched. Top seal A was attached on the plate, and absorbance was measured by microplate reader (405 nm).

`CCCCOc1nc(N)c2[nH]c(=O)n(Cc3ccc(OCC4CCN(CC(=O)OC)CC4)cc3)c2n1` [Example 5, 2-butoxy-7,8-dihydro-9-{4-[1-(methoxycarbonylmethyl)piperidin-4-ylmethyloxy]benzyl}-8-oxoadenine] and `CCCCOc1nc(N)c2[nH]c(=O)n(Cc3ccc(OCC4CCN(CC(=O)OCCCCN(C)C)CC4)cc3)c2n1` [Example 7, 2-Butoxy-7,8-dihydro-9-[4-{1-[4-(N,N-dimethylamino)-butoxycarbonylmethyl]piperidin-4-ylmethyloxy}benzyl]-8-oxoadenine] are within 1.5-fold of each other in EC50: 3.6 nM for the first, 5.1 nM for the second.

`CCCCOc1nc(N)c2[nH]c(=O)n(Cc3ccc(CN(C)CC(=O)OC)cc3OC)c2n1` [Example 16, 2-Butoxy-7,8-dihydro-9-[2-methoxy-4-(N-methoxycarbonylmethyl-N-methylaminomethyl)benzyl]-8-oxoadenine] and `CCCCOc1nc(N)c2[nH]c(=O)n(Cc3ccc(CN(C)CC(=O)OCCCCN(C)C)cc3OC)c2n1` [Example 23, 2-Butoxy-7,8-dihydro-9-{4-[N-(4-dimethylaminobutoxy-carbonylmethyl)-N-methylaminomethyl]-2-methoxybenzyl}-8-oxoadenine] are within 1.5-fold of each other in EC50: 15.6 nM for the first, 15.7 nM for the second.

First: CCCCOc1nc(N)c2[nH]c(=O)n(Cc3ccc(CCN4CCC(C(=O)OC)CC4)cc3)c2n1 [Example 18, 2-Butoxy-7,8-dihydro-9-{4-[2-(4-methoxycarbonyl-piperidin-1-yl)ethyl]benzyl}-8-oxoadenine]
Second: CCCCOc1nc(N)c2[nH]c(=O)n(Cc3ccc(OCCCCN4CCC(C(=O)OC)CC4)cc3)c2n1 [Example 1, 2-Butoxy-7,8-dihydro-9-[4-{4-[4-(methoxycarbonyl)-piperidin-1-yl]butoxy}benzyl]-8-oxoadenine]
The EC50 of the first is 2.6-fold lower: 2.2 nM for the first, 5.7 nM for the second.

Compared with `CCCCOc1nc(N)c2[nH]c(=O)n(Cc3ccc(OCCCCN4CCC(C(=O)OC)CC4)nc3)c2n1` [Example 24, 2-butoxy-7,8-dihydro-9-{6-[4-(4-methoxylcarbonylpiperidin-1-yl)butoxy]pyridin-3-ylmethyl}-8-oxoadenine], `CCCCOc1nc(N)c2[nH]c(=O)n(Cc3ccc(OCCCCN(C)CC(=O)OC)nc3)c2n1` [Example 26] is higher in EC50: less than 1 nM for the first, 2.8 nM for the second. The first is the more potent here.

Compared with `CCCCOc1nc(N)c2[nH]c(=O)n(Cc3ccc(CCN(C)CC(=O)OC)cc3)c2n1` [Example 20, 2-Butoxy-7,8-dihydro-9-{4-[2-(N-methoxycarbonylmethyl-N-methylamino)ethyl]benzyl}-8-oxoadenine], `CCCCOc1nc(N)c2[nH]c(=O)n(Cc3ccc(CCCN(C)CC(=O)OC)cc3)c2n1` [Example 21, 2-Butoxy-7,8-dihydro-9-{4-[3-(N-methoxycarbonylmethyl-N-methylamino)propyl]benzyl}-8-oxoadenine] is 2.7-fold lower in EC50: 18.5 nM for the first, 6.8 nM for the second.

Compared with `CCCCOc1nc(N)c2[nH]c(=O)n(Cc3ccc(CN(C)CC(=O)OC)cc3)c2n1` [Example 9, 2-Butoxy-7,8-dihydro-9-[4-(N-methoxycarbonylmethyl-N-methylaminomethyl)benzyl]-8-oxoadenine], `COCCOc1nc(N)c2[nH]c(=O)n(Cc3ccc(CN(C)CC(=O)OC)cc3)c2n1` [Example 12, 7,8-Dihydro-9-[4-(N-methoxycarbonylmethyl-N-methylaminomethyl)benzyl]-2-(2-methoxyethoxy)-8-oxoadenine] is 29-fold higher in EC50: 8.8 nM for the first, 252 nM for the second.

Going from `CCCCOc1nc(N)c2[nH]c(=O)n(Cc3ccc(OCCCCN4CCC(C(=O)OCCCCN(C)C)CC4)cc3)c2n1` [Example 3, 2-butoxy-7,8-dihydro-9-(4-[4-{4-[4-(N,N-dimethylamino)butoxycarbonyl]piperidin-1-yl}butoxy]benzyl)-8-oxoadenine] to `CCCCOc1nc(N)c2[nH]c(=O)n(Cc3ccc(OCCCCN(C)CC(=O)OCCCCN(C)C)nc3)c2n1` [Example 28, 2-Butoxy-7,8-dihydro-9-[6-(4-{N′-methyl-N′-[4-(N,N-dimethylamino)butoxycarbonylmethyl]}aminobutoxy)pyridin-3-ylmethyl]-8-oxoadenine], the EC50 falls from 7.8 nM to 2 nM (3.9-fold).

Work on `CCCCOc1nc(N)c2[nH]c(=O)n(Cc3ccc(OCCCN(C)CC(=O)OC)cc3)c2n1` [Example 4, 2-butoxy-7,8-dihydro-9-[4-{3-[(N-methyl-N-methoxycarbonylmethyl)amino]propoxy}benzyl]-8-oxoadenine] yielded an EC50 of 7.8 nM.
